The text below walks through data of US20240261244A1, “METHODS FOR TREATING VIRAL INFECTIONS” (Daarsh Innovations, Inc., priority 2023, published 2024).

The subject of the assay is SARS Cov-2 virus. It counts as cell-based. To be noted: 90 μL test solution + 10 μL virus (about 10^5 PFU/ml), 3 minutes contact at room temperature; plaque assay on Vero E6 cells.

As for `O=C(O)CN(CCN(CC(=O)O)CC(=O)O)CC(=O)O` [EDTA 5%, ethylenediaminetetraacetic acid], the “Residual Viral Load (Log PFU/0.1 ml)” value is 3.40 Log PFU/0.1 ml.
